Data: publication PMC8434415, “Chromone Derivatives with α-Glucosidase Inhibitory Activity from the Marine Fungus Penicillium thomii Maire” (Molecules, 2021)

How the values were obtained:
[1] = test system: several carcinoma cell lines; conditions: cited from earlier work
[2] = biological target: T1, α-glucosidase from Saccharomyes cerevisiae (Saccharomyces cerevisiae, UniProt P53341); assay: α-glucosidase inhibitory assay (PNPG substrate); assay type: biochemical; conditions: for inhibition at 667 µM: compound at 667 μM; for IC50: tested between 0.2 and 2 mM, three replicates
T1 construct: purchased Sigma-Aldrich (St. Louis, MO, USA)
T1 sequence (P53341 whole entry): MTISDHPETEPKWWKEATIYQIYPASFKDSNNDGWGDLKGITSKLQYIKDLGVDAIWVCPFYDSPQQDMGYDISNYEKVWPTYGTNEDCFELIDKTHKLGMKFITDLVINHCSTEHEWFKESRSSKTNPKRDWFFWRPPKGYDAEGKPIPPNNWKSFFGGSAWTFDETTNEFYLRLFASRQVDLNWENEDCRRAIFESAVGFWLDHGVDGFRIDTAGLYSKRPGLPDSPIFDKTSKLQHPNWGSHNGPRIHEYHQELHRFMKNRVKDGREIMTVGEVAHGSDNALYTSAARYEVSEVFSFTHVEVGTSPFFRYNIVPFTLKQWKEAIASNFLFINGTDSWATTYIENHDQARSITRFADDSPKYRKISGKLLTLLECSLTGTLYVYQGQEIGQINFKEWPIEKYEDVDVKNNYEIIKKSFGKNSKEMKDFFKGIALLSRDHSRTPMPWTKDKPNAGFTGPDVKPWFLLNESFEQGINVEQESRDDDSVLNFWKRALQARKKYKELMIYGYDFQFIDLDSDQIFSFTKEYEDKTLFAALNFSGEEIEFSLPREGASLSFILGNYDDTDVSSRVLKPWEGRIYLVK
Protocol: The α-glucosidase inhibitory effect was performed as follows. The 0.2 U of α-glucosidase from Saccharomyes cerevisiae, purchased from Sigma-Aldrich (St. Louis, MO, USA), was diluted to 0.067 M phosphate buffer consisting of Na2HPO4·12H2O and KH2PO4 (pH 6.8). The assay was conducted in a 60 μL reaction system containing 20 μL of diluted enzyme solution and 20 μL of DMSO or sample (dissolved in DMSO). After 10 min of incubation in the 96-well plates at 37 °C, 20 μL of 4 mM PNPG (4-nitrophenyl-α-D-glucopyranoside, Aladdin, Shanghai, China) was added as substrate to start the enzymatic reaction. The plate was incubated for an additional 20 min at 37 °C, and the reaction was quenched by adding 60 μL of 0.2 M Na2CO3. The final concentrations of tested compounds were between 0.2 and 2 mM. The optical density (OD) was measured at an absorbance wavelength of 405 nm using a Microplate Reader (Tecan, Switzerland). […] Percent inhibition was calculated by the following equation: Inhibition (%) = ((Absorbance of control − Absorbance of test)/Absorbance of control)); IC50 concentrations are calculated using concentration vs. percent inhibition values.

[3] = DPPH radical scavenging (antioxidant) test; conditions: for Antioxidant % Inhibition (1000 μM): compound at 1000 μM
Protocol: The DPPH scavenging was assayed following the procedures in our recent published paper. The DPPH radical scavenging test was performed in 96-well microplates. Then, 20 μL of samples at a concentration of 10 mM in MeOH were added to 180 μL (150 μmol/L) DPPH solution. After 30 min of light avoidance, absorbance at 517 nm using a Microplate Reader (Tecan, Switzerland) was measured and the percentage of activity was calculated. All assays were performed in three replicates, and vitamin C was used as a positive control. Percent inhibition was calculated by the following equation: Inhibition (%) = ((Absorbance of control − Absorbance of test)/Absorbance of control)); IC50 concentrations are calculated using concentration vs. percent inhibition values.

α-glucosidase = test system: α-glucosidase; design: method as in PMID 25044593; conditions: cited from earlier work
liver X receptor α = biological target: liver X receptor α; design: method as in PMID 33932772; conditions: read-out: dissociation equilibrium constant; cited from earlier work

Compound | inhibition at 667 µM [2] [%] | Antioxidant % Inhibition (1000 μM) [3] [%] | further results
COC(=O)CC(O)(C(=O)OC)[C@@H]1Cc2c(oc3cc(C)cc(O)c3c2=O)S1 (some centres unmarked) [oxalicumone E, oxalicumones E] |  |  | IC50 [1]: < 10 µM
C[C@H]1O[C@H](O[C@H]2[C@H](O)[C@@H](O)[C@@H](O[C@H]3[C@H](O)[C@@H](O)C(O)O[C@@H]3CO)O[C@@H]2CO)[C@H](O)[C@@H](O)[C@@H]1N[C@H]1C=C(CO)[C@@H](O)[C@H](O)[C@H]1O (some centres unmarked) [Acarbose, acarbose, reference compound] | 27.7 |  | 
COC(=O)CCCCC(O)Cc1cc(=O)c2c(O)cc(OC)cc2o1 (centres unmarked) [Compound 3, Penithochromone O] | 23.8 | 20.4 | 
O=C(O)CCCCCCc1cc(=O)c2c(O)cc(O)cc2o1 [Compound 10, penithochromone A] | 74.7 | 21.8 | IC50 [2]: 268 ± 25 µM
COc1cc(OC)c2c(=O)cc(CCCC(=O)O)oc2c1 [4-(5,7-dimethoxy-4-oxo-4H-chromen-2-yl)butanoic acid] |  |  | inhibitory activity on α-glucosidase (in words) (α-glucosidase): moderate inhibitory activity
COC(=O)CC(O)CCCCc1cc(=O)c2c(OC)cc(OC)cc2o1 (centres unmarked) [Compound 5, Penithochromone Q] | 1.41 | 11.2 | 
COC(=O)[C@H](O)C[C@](O)(C(=O)OC)[C@H]1Cc2c(oc3cc(C)cc(O)c3c2=O)S1 [oxalicumone B, oxalicumones B] |  |  | IC50 [1]: < 10 µM
O=C(O)CC(O)CCCCc1cc(=O)c2c(O)cc(O)cc2o1 (centres unmarked) [Compound 6, Penithochromone R] | 27.3 | 33.8 | IC50 [2]: 842 ± 11 µM
COc1cc(O)c2c(=O)cc(CC(O)CCCC/C=C/C(=O)O)oc2c1 (centres unmarked) [Compound 8, Penithochromone T] | 41.7 | 19.3 | IC50 [2]: 1020 ± 22 µM
O=C(O)CCCCC(O)Cc1cc(=O)c2c(O)cc(O)cc2o1 (centres unmarked) [Compound 2, Penithochromone N] | 15.1 | 35.7 | IC50 [3]: 1970 ± 156 µM
COc1cc(OC)c2c(=O)cc(CCCCC(O)CC(=O)O)oc2c1 (centres unmarked) [Compound 4, Penithochromone P] | -9.72 | 12.2 | 
COC(=O)C(O)(C[C@@H](O)C(=O)O)[C@@H]1Cc2c(oc3cc(C)cc(O)c3c2=O)S1 (some centres unmarked) [oxalicumone D, oxalicumones D] |  |  | IC50 [1]: < 10 µM
COc1cc(O)c2c(=O)cc(CCC[C@@H]3CCC(=O)O3)oc2c1 [Compound 1, Penithochromone M] | -3.43 | 7.24 | 
COC(=O)[C@H](O)C[C@](O)(C(=O)OC)[C@@H]1Cc2c(oc3cc(C)cc(O)c3c2=O)S1 [oxalicumone A, oxalicumones A] |  |  | IC50 [1]: < 10 µM
Pestalotiochromone A |  |  | Kd (liver X receptor α): 6.2 µM
COc1cc(O)c2c(=O)cc(CCCCCCC(=O)O)oc2c1 [Compound 9, penithochromone C] | 40.2 | 18.1 | IC50 [2]: 688 ± 24 µM
COc1cc(O)c2c(=O)cc(CC(O)CCCCCCC(=O)O)oc2c1 (centres unmarked) [Compound 7, Penithochromone S] | 25.2 | 23.6 | IC50 [2]: 917 ± 8 µM
O=C1O[C@H]([C@@H](O)CO)C(O)=C1O [Vitamin C, vitamin C, reference compound] |  | 96.4 | IC50 [3]: 26.7 µM
